Source: ChEMBL document CHEMBL1129502, “Betulinic acid and dihydrobetulinic acid derivatives as potent anti-HIV agents” (J Med Chem, 1996)

How the values were obtained:
H9 = test: Inhibitory activity […] in mock infected H9 cells; format: functional, cell-based; conditions: Homo sapiens
[1] = test system: Human immunodeficiency virus 1; test: full Inhibitory activity against HIV-1-induced syncytia; format: functional
[2] = Concentration inhibiting HIV-1 replication by 50% in infected H9 lymphocyte cells; conditions: human, HIV-1-infected H9 lymphocyte cells
[3] = test system: Human immunodeficiency virus 1; test: Inhibitory activity against HIV-1-induced syncytia determined by fusion assay; format: functional
[4] = test system: HIV-1 reverse transcriptase (Human immunodeficiency virus 1); test: Inhibitory activity against HIV-RT; no inhibition

| Structure (SMILES) | IC50 (H9) | IC100 [1] | EC50 [2] | IC100 [3] | IC50 [4] |
| --- | --- | --- | --- | --- | --- |
| CC(C)[C@@H]1CC[C@]2(C(=O)O)CC[C@]3(C)[C@H](CC[C@@H]4[C@@]5(C)CC[C@H](O)C(C)(C)[C@@H]5CC[C@]43C)[C@@H]12 [DIHYDROBETULINIC ACID] | 12.6 µM | >218 µM | 0.9 µM | – | – |
| C=C(C)[C@@H]1CC[C@]2(C(=O)O)CC[C@]3(C)[C@H](CC[C@@H]4[C@@]5(C)CC[C@H](O)C(C)(C)[C@@H]5CC[C@]43C)[C@@H]12 [BETULINIC ACID] | 13 µM | – | 1.4 µM | >219 µM | – |
| CC(C)[C@@H]1CC[C@]2(C(=O)O)CC[C@]3(C)[C@H](CC[C@@H]4[C@@]5(C)CC[C@H](OC(=O)CC(C)(C)CC(=O)O)C(C)(C)[C@@H]5CC[C@]43C)[C@@H]12 | 5.8 µM | – | 5.7 µM | 33 µM | – |
| C=C(C)[C@@H]1CC[C@]2(C(=O)O)CC[C@]3(C)[C@H](CC[C@@H]4[C@@]5(C)CC[C@H](OC(=O)CC(C)(C)C(=O)O)C(C)(C)[C@@H]5CC[C@]43C)[C@@H]12 [BEVIRIMAT] | 7 µM | – | < 3.5 µM | 34 µM | – |
| C=C(C)[C@@H]1CC[C@]2(C(=O)O)CC[C@]3(C)[C@H](CC[C@@H]4[C@@]5(C)CC[C@H](OC(=O)CC(C)(C)CC(=O)O)C(C)(C)[C@@H]5CC[C@]43C)[C@@H]12 | 4.5 µM | – | 2.3 µM | 50 µM | – |
| CC(C)[C@@H]1CC[C@]2(C(=O)O)CC[C@]3(C)[C@H](CC[C@@H]4[C@@]5(C)CC[C@H](OC(=O)CC(C)(C)C(=O)O)C(C)(C)[C@@H]5CC[C@]43C)[C@@H]12 | 4.9 µM | – | < 3.5 µM | 34 µM | – |
| C=C(C)[C@@H]1CC[C@]2(C(=O)O)CC[C@]3(C)[C@H](CC[C@@H]4[C@@]5(C)CC[C@H](OC(=O)C(C)(C)CC(=O)O)C(C)(C)[C@@H]5CC[C@]43C)[C@@H]12 | 15.9 µM | – | 2.7 µM | 34 µM | – |
| C=C(C)[C@@H]1CC[C@]2(C(=O)O)CC[C@]3(C)[C@H](CC[C@@H]4[C@@]5(C)CC[C@H](OC(=O)COCC(=O)O)C(C)(C)[C@@H]5CC[C@]43C)[C@@H]12 | 11.7 µM | – | 0.01 µM | 70 µM | – |
| C=C(C)[C@@H]1CC[C@]2(C(=O)NCCCCCCCC(=O)N[C@@H](CC(C)C)[C@@H](O)CC(=O)O)CC[C@]3(C)[C@H](CC[C@@H]4[C@@]5(C)CC[C@H](O)C(C)(C)[C@@H]5CC[C@]43C)[C@@H]12 | 2.7 µM | 3 µM | 0.03 µM | – | Not Active |
| CC(C)[C@@H]1CC[C@]2(C(=O)O)CC[C@]3(C)[C@H](CC[C@@H]4[C@@]5(C)CC[C@H](OC(=O)COCC(=O)O)C(C)(C)[C@@H]5CC[C@]43C)[C@@H]12 | 13.1 µM | – | 5.6 µM | 70 µM | – |
| CC(C)[C@@H]1CC[C@]2(C(=O)O)CC[C@]3(C)[C@H](CC[C@@H]4[C@@]5(C)CC[C@H](OC(=O)C(C)(C)CC(=O)O)C(C)(C)[C@@H]5CC[C@]43C)[C@@H]12 | 7.7 µM | – | 0.56 µM | – | – |
